Laboratory results reported in US20090123904A1, “COMPOSITION FOR PRESERVING CELLS, TISSUES, OR ORGANS, PRODUCTION PROCESS AND USES” (BIOCYDEX, SOCIETE PAR ACTIONS SIMPLIFIEE, priority 2007, published 2009).

Assay: Dissolution of the powder in ViaSpan preservation medium
Format: physicochemical
Conditions: in 10 ml of ViaSpan preservation medium, 100×-concentrated solution
Description: The production process consists in taking up 15.77 mg of propane diamine-β-CD in powder form in 10 ml of the preservation medium ViaSpan® to obtain a 100×-concentrated solution.
The preparation of the close mixture is carried out according to the following operating procedure: • 4.57 mg of resveratrol is added to 9 ml of a solution that contains 2495.3 mg of propane diamine-β-CD in water, • The pH is adjusted to 7.4, • The whole is stirred for 5 to 24 hours at 24° C. and in the absence of light, • The solution is next filtered in a Millipore hydrophilic PVDF filter and then freeze-dried to provide a powder that contains a close mixture whose resveratrol/propane diamine-β-CD molar ratio is 1/111, • The freeze-dried close mixture is preserved in amber bottles at 4° C., • 15.8 mg of the close mixture is then taken up in 10 ml of the ViaSpan® preservation medium to obtain a 100×-concentrated solution.

## NCCCNCC1OC2OC3C(CO)OC(OC4C(CO)OC(OC5C(CO)OC(OC6C(CO)OC(OC7C(CO)OC(OC8C(CO)OC(OC1C(O)C2O)C(O)C8O)C(O)C7O)C(O)C6O)C(O)C5O)C(O)C4O)C(O)C3O (stereo not drawn) [propane diamine-β-CD, 6A-(3-aminopropylamino)-6A-deoxy-cyclomatoheptaose]
  Dissolution of the powder: dissolves instantaneously
